Reference: US20240150377A1, “MODULATORS OF CYSTIC FIBROSIS TRANSMEMBRANE CONDUCTANCE REGULATOR” (VERTEX PHARMACEUTICALS INCORPORATED, priority 2020, published 2024)

Molecular target: T1, CFTR (Homo sapiens, UniProt P13569, DEL508-508)
T1 construct: endogenous in cells; host or cells: primary human bronchial epithelial cells from CF subjects (F508del/MF-HBE), differentiated at air-liquid interface
Experiment: HBE2 assay: Ussing chamber assay of CFTR-mediated short-circuit currents
Format: cell-based
Conditions: F508del/MF-HBE cells, with 44 nM potentiator, 18-24 hours, 20% human serum; for Emax: read-out: HBE2 Max activity (%)
Protocol: Ussing Chamber Assay of CFTR-Mediated Short-Circuit Currents
After four days the apical media was removed, and the cells were grown at an air liquid interface for >14 days prior to use.
To isolate the CFTR-mediated short-circuit (ISC) current, F508del/MF-HBE grown on Costar® Snapwell™ cell culture inserts were mounted in an Ussing chamber and the transepithelial ISC was measured under voltage-clamp recording conditions (Vhold=0 mV) at 37° C. […] The CFTR-mediated ISC (μA/cm^2) for each condition was determined from the peak forskolin response to the steady-state current following inhibition.
Identification of Corrector Compounds
The activity of the CFTR corrector compounds on the CFTR-mediated ISC was determined in Ussing chamber studies as described above.

T1 sequence (P13569 with tags, fused parts or gaps DEL508-508): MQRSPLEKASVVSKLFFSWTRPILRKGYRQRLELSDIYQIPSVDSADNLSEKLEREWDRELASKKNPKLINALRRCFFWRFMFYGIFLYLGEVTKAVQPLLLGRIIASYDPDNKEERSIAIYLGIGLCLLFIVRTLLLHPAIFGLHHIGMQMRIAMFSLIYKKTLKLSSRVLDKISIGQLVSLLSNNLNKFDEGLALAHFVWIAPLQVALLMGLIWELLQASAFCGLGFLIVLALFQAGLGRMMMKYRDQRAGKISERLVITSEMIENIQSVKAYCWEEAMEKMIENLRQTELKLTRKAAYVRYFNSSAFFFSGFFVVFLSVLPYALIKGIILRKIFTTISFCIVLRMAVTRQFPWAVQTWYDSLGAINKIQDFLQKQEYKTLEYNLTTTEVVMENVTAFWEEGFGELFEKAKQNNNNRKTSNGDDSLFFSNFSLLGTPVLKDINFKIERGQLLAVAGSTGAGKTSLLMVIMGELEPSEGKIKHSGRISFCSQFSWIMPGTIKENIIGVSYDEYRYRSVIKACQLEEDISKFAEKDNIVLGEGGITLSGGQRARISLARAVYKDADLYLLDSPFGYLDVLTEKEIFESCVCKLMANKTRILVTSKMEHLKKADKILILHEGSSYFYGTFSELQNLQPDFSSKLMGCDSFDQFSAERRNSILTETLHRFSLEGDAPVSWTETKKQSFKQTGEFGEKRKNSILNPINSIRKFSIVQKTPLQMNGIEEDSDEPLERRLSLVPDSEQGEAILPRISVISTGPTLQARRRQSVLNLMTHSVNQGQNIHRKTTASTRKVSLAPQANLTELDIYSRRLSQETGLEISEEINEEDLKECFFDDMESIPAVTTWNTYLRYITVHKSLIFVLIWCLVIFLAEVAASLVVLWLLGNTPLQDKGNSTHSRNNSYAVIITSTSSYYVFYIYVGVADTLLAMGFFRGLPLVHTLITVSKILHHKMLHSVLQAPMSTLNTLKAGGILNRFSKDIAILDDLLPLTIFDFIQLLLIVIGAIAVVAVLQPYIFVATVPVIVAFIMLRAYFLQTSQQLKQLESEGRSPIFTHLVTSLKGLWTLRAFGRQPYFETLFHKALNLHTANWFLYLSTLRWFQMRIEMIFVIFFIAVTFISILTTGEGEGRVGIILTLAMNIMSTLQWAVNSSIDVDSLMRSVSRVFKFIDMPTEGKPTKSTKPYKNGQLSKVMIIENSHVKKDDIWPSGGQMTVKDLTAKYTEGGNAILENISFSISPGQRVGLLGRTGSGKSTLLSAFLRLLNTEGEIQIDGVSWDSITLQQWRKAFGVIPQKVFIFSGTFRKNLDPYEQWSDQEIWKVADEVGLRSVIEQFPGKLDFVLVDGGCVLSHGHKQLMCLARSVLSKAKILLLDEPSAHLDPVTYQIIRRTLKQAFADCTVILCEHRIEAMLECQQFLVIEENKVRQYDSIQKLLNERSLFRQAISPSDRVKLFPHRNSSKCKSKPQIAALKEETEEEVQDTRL

Row | Structure (SMILES) | HBE2 Activity at 3 μM (%) (3 μM corrector) | further results
1 | Cc1cccc(C)c1-c1cc2nc(n1)NS(=O)(=O)c1cccc(c1)C(=O)N(Cc1ncc(N3CCC(C)(C)C3)cn1)[C@H](CC(C)(C)F)CO2 [Compound 1564] | – | HBE2 Activity at 3 μM (%) (3 μM): +++ (+++ is >60+)
2 | Cc1cccc(C)c1-c1cc2nc(n1)NS(=O)(=O)c1cccc(c1)C(=O)N(Cc1cncc(N(C)CC(C)C)n1)[C@H](CC1CCCC1)CO2 [Compound 1845] | +++ (+++ is >60+) | –
3 | Cc1cccc(C)c1-c1cc2nc(n1)NS(=O)(=O)c1cccc(c1)C(=O)N(Cc1cncc(N(C)[C@H]3C[C@@H](F)C3)n1)[C@H](COC1CC1)CO2 [Compound 1906] | +++ (+++ is >60+) | –
4 | Cc1cccc(C)c1-c1cc2nc(n1)NS(=O)(=O)c1cccc(c1)C(=O)N(Cc1cncc(N(C)C(C)C)n1)[C@H](CC1(C)CCC1)CO2 [Compound 1745] | +++ (+++ is >60+) | –
5 | Cc1cccc(C)c1-c1cc2nc(n1)NS(=O)(=O)c1cccc(c1)C(=O)N(Cc1cncc(N(C)C3CCC3)n1)[C@H](CC1(C(F)(F)F)CC1)CO2 [Compound 1688] | – | HBE2 Activity at 3 μM (%) (3 μM): +++ (+++ is >60+); EC50: < 1 µM; Emax: > 60%
6 | Cc1cccc(C)c1-c1cc2nc(n1)NS(=O)(=O)c1cccc(c1)C(=O)N(Cc1cnc3cc(C(C)C)n(C)c3n1)[C@H](CC1(C)CCC1)CO2 [Compound 1829] | +++ (+++ is >60+) | –
7 | Cc1cccc(C)c1-c1cc2nc(n1)NS(=O)(=O)c1cccc(c1)C(=O)N(Cc1cncc(N3CCC[C@H]3C)n1)[C@H](CCC(C)(C)C)CO2 [Compound 1814] | +++ (+++ is >60+) | –
8 | CCN(CC1CC1)c1cncc(CN2C(=O)c3cccc(c3)S(=O)(=O)Nc3nc(cc(-c4c(C)cccc4C)n3)OC[C@H]2CC(C)(C)C)n1 [Compound 1780] | +++ (+++ is >60+) | –
9 | Cc1cccc(C)c1-c1cc2nc(n1)NS(=O)(=O)c1cccc(c1)C(=O)N(Cc1cncc(N3CCC34COC4)n1)[C@H](CC(C)(C)C)CO2 [Compound 1624] | – | HBE2 Activity at 3 μM (%) (3 μM): +++ (+++ is >60+)
10 | Cc1cccc(C)c1-c1cc2nc(n1)NS(=O)(=O)c1cccc(c1)C(=O)N(Cc1cncc(N3CCC[C@@H]3C3CC3)n1)[C@H](COC1CC1)CO2 (stereo in doubt) [Compound 1891] | +++ (+++ is >60+) | –
11 | Cc1cccc(C)c1-c1cc2nc(n1)NS(=O)(=O)c1cccc(c1)C(=O)N(Cc1cncc(N(C)[C@H]3C[C@H](F)C3)n1)[C@H](COC1CC1)CO2 [Compound 1907] | +++ (+++ is >60+) | –
12 | Cc1cccc(C)c1-c1cc2nc(n1)NS(=O)(=O)c1cccc(c1)C(=O)N(Cc1cncc(N3CCC[C@@H]4CC[C@@H]43)n1)[C@H](CC(C)(C)F)CO2 [Compound 1840] | +++ (+++ is >60+) | –
13 | CC[C@@H](C)[C@@H]1COc2cc(-c3c(C)cccc3C)nc(n2)NS(=O)(=O)c2cccc(c2)C(=O)N1Cc1cncc(N(C)C2CCC2)n1 [Compound 1702] | – | EC50: < 1 µM; Emax: > 60%
14 | Cc1cccc(C)c1-c1cc2nc(n1)NS(=O)(=O)c1cccc(c1)C(=O)N(Cc1cncc(N(C)CC(C)C)n1)[C@H](CC1(C)CCC1)CO2 [Compound 1774] | +++ (+++ is >60+) | –
15 | Cc1cccc(C)c1-c1cc2nc(n1)NS(=O)(=O)c1cccc(c1)C(=O)N(Cc1cccc(N(C)C3CCC3)n1)[C@H](CC(C)(C)C)CO2 [Compound 1578] | – | HBE2 Activity at 3 μM (%) (3 μM): +++ (+++ is >60+); EC50: < 1 µM; Emax: > 60%
16 | Cc1cccc(C)c1-c1cc2nc(n1)NS(=O)(=O)c1cccc(c1)C(=O)N(Cc1cncc(N(C)CC(C)C)n1)[C@H](CC1CCCCC1)CO2 [Compound 1821] | +++ (+++ is >60+) | –
